Bounds are passed on as bounds.

Data set [1] has as its system NO-induced methemoglobinemia. In words: NO-induced methemoglobinemia and lung inflammation after accidental NO exposure, H2 inhalation and magnesium ingestion (Example 12). It is filed as in vivo, human. The source says:
During the course of developing the described methods for producing NO for a more affordable, effective, and safe source of NO therapy, one of the inventors accidentally exposed themself both chronically and acutely to NO gas. […] Since onset of symptoms, the inventor inhaled H2 gas, produced by reacting elemental magnesium and citric acid in a glass of water.
Their condition and SpO2 worsened throughout the day, and later that night they were admitted in the emergency room at a hospital with a recorded SpO2 of 45%. The hospital verified that the inventor developed NO-induced lung inflammation by X-rays and a CAT scan. Upon the diagnosis, blood samples were taken from the inventor to measure methemoglobin levels. […] A normal methemoglobin fraction is about 1%. […] Accordingly, no methemoglobin treatment (e.g., intravenous administration of methylene blue) was administered to the inventor.

For data set [2] the following is noted: cited from earlier work.
Data set [3] in a line: Inventor exposed to NO levels higher than 25 ppm during development, SpO2 oximeter. It is filed as in vivo, human. An excerpt: In fact, the inventor's oxygenation levels as measured by SpO2 oximeter were always in the 97-100 range. Accordingly, also disclosed herein are methods of preventing the onset of methemoglobinemia from nitrate, nitrite, or NO exposure, wherein the method comprising administering hydrogen to the subject exposed to a source of nitrate, a source of nitrite, or NO.

The conditions of data set [4]: cited from earlier work. The source holds these as a separate data set.
For data set [5], the system named is subject with respiratory illness.
For data set [6] the following is noted: cited from earlier work. The source holds these as a separate data set.

On to `[N]=O` [NO, nitric oxide], for which the “SpO2 one day after exposure to high ambient NO” value in data set [1] (ambient NO >80 ppm) is on record as 85%. Moreover, the “SpO2 recorded in the emergency room later that night” value in data set [1] (ambient NO >80 ppm, after prolonged H2 inhalation) worked out at 45%. The outright toxic concentration in data set [2] (in vivo) is at least 100 ppm. The ill effects entry in data set [3] (NO levels higher than 25 ppm) is recorded as “no ill effects”. Moreover, the “oxygenation levels by SpO2 oximeter” value in data set [3] (exposed multiple times to NO levels higher than 25 ppm) is 97-100.

For `O=[N+]([O-])O` [nitrate alone], in data set [4] (409 mg and 479 mg doses, Rosetti et al., Barlow et al.), the oxygen saturation result is “failed to produce any increase in oxygen saturation”.

In the case of `O=[N+]([O-])[O-].[Na+]` [sodium nitrate], the “oxygen consumption during exercise” value in data set [4] (Larsen et al., Bailey et al.) was “reduce oxygen consumption during exercise”.

Regarding `[O]N=O` [NO2, nitrogen dioxide], the “permissible exposure limit in homes and offices” value in data set [2] (OSHA, 9 mg/m^3) was at most 5 ppm. Moreover, in data set [2] (OSHA), the “concentration that can trigger symptoms in asthmatic people” value is 2 ppm and the “concentration that starts to damage the lungs” value is 5 ppm. For the same compound, the “levels shown to cause respiratory discomfort in vulnerable populations” value in data set [2] (asthmatics) is at least 0.1 ppm. For the same compound, the “concentration that can kill a human” value in data set [2] (exposed for about an hour) is 100 ppm.

Consider `[HH]` [H2 gas, hydrogen], for which, in data set [1] (at SpO2 of 45%, after H2 inhalation and 2000 mg elemental magnesium powder), the “methemoglobin in blood samples” value is given as “no methemoglobin was detected”. The “minor methemoglobinemia caused by inhalation of NO gas” value in data set [1] (other experiments, SpO2 returning to normal) was “reversed”. Also, for the setting “for every about 40 ppm increase in H2 concentration, 30 C”, the “increase in relative humidity” value is on record as 1%. Moreover, for the setting “sensor limit 1000 ppm”, the “H2 concentration shown safe (no symptoms of water in the lungs)” value is 1000 ppm.

Consider `O=[N+]([O-])[O-].[K+]` [potassium nitrate], for which the “lower blood oxygen saturation versus the placebo” value in data set [4] (hypoxic conditions, Schiffer et al.) was “about 3%”. In data set [5] (human, in vivo), the “other symptoms (weakness, coughing)” value was “no attenuation of their other symptoms”. In addition, the “SpO2 for up to 4 hours after administration” value in data set [5] (person) is “showed no signs of increase”. In data set [5] (person, baseline 93%), the “SpO2 15 minutes after administration” value came out at 93%.

As to `O=NO` [Sodium nitrite], the methemoglobin level in data set [6] (600 mg to an adult for cyanide toxicity, van Heijst et al.) was 58%. In addition, in data set [6] (Katabami et al.), the “lowest calculated lethal dose” value is 2.6 grams. Moreover, in data set [6] (in vivo), the “dose in a reported case of severe methemoglobinemia” value is on record as “about 70 mg”.
